We go through 17 molecules from PubChem BioAssay (NCI).

Values after ≈ are worked out from the molar mass of the structure shown.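 Step 1: Grow cells in 96-well plates. Step 2: Expose to compound for 48 hours at 5 concentrations. Step 3: Interpolate endpoints linearly; if unreached, use highest concentration. Here, GI50 denotes the concentration required for 50% inhibition of growth. TGI denotes the concentration required for complete inhibition of growth.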 Where only a bound is given, the exact number is not on record here.

Test systems include COLO 205 colon; SK-MEL-5 melanoma; OVCAR-8 ovarian; IGROV1 ovarian; NCI-H522 lung; UACC-62 melanoma; OVCAR-5 ovarian; NCI/ADR-RES ovarian; SR leukemia; T-47D breast.
What all share (assay): NCI anticancer screen, dose series, 48 h

As to `Cc1cc2c(C(C)C)c(O)c(O)c3coc(/c1=c1/c(C)cc4c(C(C)C)c(=O)c(=O)c5coc1c45)c32`, the TGI came to 5.34 µM with COLO 205 colon; 28.6 µM in the test with SK-MEL-5 melanoma; 17.1 µM in the test on OVCAR-8 ovarian; 15.1 µM with IGROV1 ovarian; 19 µM in the test with NCI-H522 lung; 13.5 µM with UACC-62 melanoma. The TGI with OVCAR-5 ovarian was determined as 32.4 µM.
In the case of `CC1(C)CCSC(/C=C/c2ccccc2)=N1`, the TGI with NCI/ADR-RES ovarian is 38.2 µM; in the test with SK-MEL-5 melanoma, 28.8 µM; in the test on OVCAR-8 ovarian it was 29.8 µM; with IGROV1 ovarian, 37.8 µM; in the test on NCI-H522 lung, 39.8 µM; in the test with OVCAR-5 ovarian, 36.4 µM.
As for `Cc1ccc2sc3cc(=O)cc(C)c-3nc2c1`, the TGI with COLO 205 colon is greater than 100 µM; with SR leukemia, greater than 100 µM; in the test on SK-MEL-5 melanoma, 38.4 µM; in the test on OVCAR-8 ovarian, greater than 100 µM; in the test with IGROV1 ovarian, greater than 100 µM; with NCI-H522 lung, greater than 100 µM. Moreover, the TGI in the test on UACC-62 melanoma was 36 µM; with OVCAR-5 ovarian, greater than 100 µM.
On to `N=C(c1ccccc1)N1CCCCC1`, for which the TGI in the test with COLO 205 colon, in the test on SR leukemia, in the test with OVCAR-8 ovarian, in the test on NCI-H522 lung and in the test with OVCAR-5 ovarian was greater than 100 µM each time.
On to `O=S(=O)(O)C(F)(F)C(F)(F)C(F)(F)C(F)(F)F`, for which the TGI in the test on COLO 205 colon, in the test on SK-MEL-5 melanoma, in the test with OVCAR-8 ovarian, with IGROV1 ovarian, with UACC-62 melanoma and in the test on OVCAR-5 ovarian was greater than 100 µM each time.
`CCNC(=O)C(O)C1(O)CCC2[C@@H]3CCC4=CC(=O)C=C[C@]4(C)C3[C@@H](O)C[C@@]21C` (stereo partly drawn): the TGI with COLO 205 colon, in the test on SR leukemia, with OVCAR-8 ovarian, with IGROV1 ovarian, with NCI-H522 lung and in the test on UACC-62 melanoma was greater than 100 µM each time. The TGI in the test on OVCAR-5 ovarian was greater than 100 µM.
Take `C/C(=N\NC(N)=S)c1ccc2c(c1)OCO2`: the TGI in the test on COLO 205 colon, in the test on SR leukemia, with SK-MEL-5 melanoma, in the test on OVCAR-8 ovarian, with IGROV1 ovarian and with NCI-H522 lung was greater than 100 µM throughout. For the same molecule, the TGI in the test on UACC-62 melanoma and in the test on OVCAR-5 ovarian was greater than 100 µM throughout.
Consider `CCCOc1ccc(/C=C/c2cc(OC)c(OC)c(OC)c2)cc1`, for which the TGI is 2.42 µM with COLO 205 colon; 31.2 µM in the test with SR leukemia; 0.467 µM in the test with SK-MEL-5 melanoma; 22.3 µM in the test on OVCAR-8 ovarian; greater than 100 µM in the test on IGROV1 ovarian; 0.478 µM in the test with NCI-H522 lung. In addition, the TGI with UACC-62 melanoma was greater than 100 µM; with OVCAR-5 ovarian, 72.9 µM.
For `O=S(=O)(CC1=NC2C=CC=CC2N=C1)NCc1ccccc1` (stereo not drawn), the TGI in the test on COLO 205 colon, with SK-MEL-5 melanoma, in the test on OVCAR-8 ovarian, with IGROV1 ovarian, in the test with NCI-H522 lung and in the test with UACC-62 melanoma was greater than 100 µM in each case. Further, the TGI in the test with OVCAR-5 ovarian is greater than 100 µM.
Turning to `C=CCOc1cc2c(cc1C(C)c1ccc(OC)cc1)OCO2` (stereo not drawn), the TGI with SR leukemia was 0.695 µM; in the test with SK-MEL-5 melanoma it was greater than 56.3 µM; with OVCAR-8 ovarian, 5.97 µM; with IGROV1 ovarian it was greater than 100 µM; in the test on NCI-H522 lung it was 0.541 µM; with UACC-62 melanoma, greater than 87.5 µM. Also, the TGI in the test on OVCAR-5 ovarian is greater than 100 µM.
Turning to `OCCN(CO)CN(CN(CO)CCO)c1nc(N(CN(CO)CCO)CN(CO)CCO)nc(N(CN(CO)CCO)CN(CO)CCO)n1`, the GI50 is 0.742 ng/mL (≈ 0.996 nM) with SR leukemia; 1.09 ng/mL (≈ 1.46 nM) with T-47D breast; 1.54 ng/mL (≈ 2.07 nM) in the test on OVCAR-8 ovarian; 1.75 ng/mL (≈ 2.35 nM) in the test on IGROV1 ovarian; 1.26 ng/mL (≈ 1.69 nM) in the test with UACC-62 melanoma; 2.02 ng/mL (≈ 2.71 nM) in the test with OVCAR-5 ovarian. Moreover, the TGI with SR leukemia was 2.62 ng/mL; in the test on T-47D breast it was 3.21 ng/mL (≈ 4.31 nM); in the test with OVCAR-8 ovarian, 5500 ng/mL; in the test with IGROV1 ovarian, 5.46 ng/mL; in the test with UACC-62 melanoma, 3.02 ng/mL; in the test with OVCAR-5 ovarian, 76.8 ng/mL.
As for `CSC(=S)N(C)c1nc(=[N+](C)C)ss1`, the TGI in the test on SR leukemia, with SK-MEL-5 melanoma, with OVCAR-8 ovarian, in the test with IGROV1 ovarian, with NCI-H522 lung and in the test with UACC-62 melanoma was greater than 100 µM each time. The same molecule gave a TGI in the test on OVCAR-5 ovarian greater than 100 µM.
`C/C(=N\NC(N)=S)c1ccc(/C(C)=N/NC(N)=S)cc1`: the TGI in the test with COLO 205 colon, in the test on SR leukemia, with SK-MEL-5 melanoma, in the test on OVCAR-8 ovarian, with IGROV1 ovarian and in the test on NCI-H522 lung was greater than 100 µM throughout. Further, the TGI in the test with UACC-62 melanoma and with OVCAR-5 ovarian was greater than 100 µM throughout.
On to `CCCCCCCCCCCCCCCC(=O)NC1CCc2cc(O)c(O)c(O)c2-c2ccc(SC)c(=O)cc21` (stereo not drawn), for which the TGI in the test with COLO 205 colon is 16.9 µM; in the test on SR leukemia, greater than 31 µM; in the test on SK-MEL-5 melanoma, 16 µM; in the test with OVCAR-8 ovarian, 28.8 µM; with IGROV1 ovarian, 25.3 µM; in the test with NCI-H522 lung it was 14.6 µM. Besides, the TGI with UACC-62 melanoma came to 10.9 µM; with OVCAR-5 ovarian it was 26.8 µM.
`COC(=O)c1c/c(=N\NC(=O)CC(=O)Nc2ccccc2Cl)c2ccccc2o1`: the TGI with COLO 205 colon, in the test on SR leukemia, with SK-MEL-5 melanoma, with OVCAR-8 ovarian, with IGROV1 ovarian and in the test on NCI-H522 lung was greater than 100 µM throughout. Also, the TGI in the test on UACC-62 melanoma and in the test on OVCAR-5 ovarian was greater than 100 µM in each case.
On to `Cc1cccc(C(C)(C)C)c1NC(=O)CC1C(=O)Nc2ccccc2S1=O` (stereo not drawn), for which the TGI with COLO 205 colon is 40.9 µM; with SR leukemia, 87.8 µM; with OVCAR-8 ovarian, greater than 100 µM; with NCI-H522 lung, greater than 100 µM; with OVCAR-5 ovarian it was greater than 100 µM.
Take `O=C(CC(=O)Nc1ccc(Cl)cc1)NNCC(=O)Nc1nc(-c2ccccc2)cs1`: the TGI in the test on COLO 205 colon, with SK-MEL-5 melanoma, in the test on OVCAR-8 ovarian, in the test on IGROV1 ovarian, in the test on NCI-H522 lung and in the test on UACC-62 melanoma was greater than 100 µM in each case.
